From PubChem BioAssay AID248 (DTP/NCI, 2004)
Where “and” joins values, the source holds several entries; their conditions need not be identical. Equal entries are not always repeated. Toxic doses and inconclusive results are not listed. No stated cut-off is given here; in the data, active means T/C of 150% or more; inactive means T/C below 125%.

System: L1210 leukemia ip in BDF1 mice, survival T/C
Assay: NCI In Vivo Anticancer Drug Screen. Data for tumor model L1210 Leukemia (intraperitoneal) in B6D2F1 (BDF1) mice
Conditions: endpoint: mean survival time, higher = longer survival
Summary of the method: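 Survival endpoint. Drug-treated group vs vehicle group, expressed as T divided by C. Tumor passaged by transplantation.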

[1] = dose: 100.0 mg/kg/injection, schedule: Q01DX001 (ip), vehicle: Klucel (hydroxypropylcellulose) (HPC)
[2] = dose: 100.0 mg/kg/injection, schedule: Q04DX002 (ip), vehicle: Klucel (hydroxypropylcellulose) (HPC)
[3] = dose: 200.0 mg/kg/injection, schedule: Q01DX001 (ip), vehicle: Klucel (hydroxypropylcellulose) (HPC)
[4] = dose: 200.0 mg/kg/injection, schedule: Q04DX002 (ip), vehicle: Klucel (hydroxypropylcellulose) (HPC)
[5] = dose: 400.0 mg/kg/injection, schedule: Q01DX001 (ip), vehicle: Klucel (hydroxypropylcellulose) (HPC)
[6] = dose: 400.0 mg/kg/injection, schedule: Q04DX002 (ip), vehicle: Klucel (hydroxypropylcellulose) (HPC)
[7] = dose: 100.0 mg/kg/injection, schedule: Q01DX009 (ip), vehicle: saline with Tween-80
[8] = dose: 200.0 mg/kg/injection, schedule: Q01DX009 (ip), vehicle: saline with Tween-80
[9] = dose: 400.0 mg/kg/injection, schedule: Q01DX009 (ip), vehicle: saline with Tween-80
[10] = dose: 100.0 mg/kg/injection, schedule: Q01DX001 (ip), vehicle: carboxymethylcellulose (CMC)
[11] = dose: 200.0 mg/kg/injection, schedule: Q01DX001 (ip), vehicle: carboxymethylcellulose (CMC)
[12] = dose: 400.0 mg/kg/injection, schedule: Q01DX001 (ip), vehicle: carboxymethylcellulose (CMC)
[13] = dose: 100.0 mg/kg/injection, schedule: Q01DX001 (ip), vehicle: saline
[14] = dose: 200.0 mg/kg/injection, schedule: Q01DX001 (ip), vehicle: saline
[15] = dose: 400.0 mg/kg/injection, schedule: Q01DX001 (ip), vehicle: saline
[16] = dose: 100.0 mg/kg/injection, schedule: Q04DX002 (ip), vehicle: saline

Measured: T/C

CC(CCC/C=C/CCCN(C)C(=N)N)CC(C)C1OC(=O)C(C)C(O)/C=C/C(C)C(O)C(C)C(O)C(C)C(O)CCCC(O)CC2(O)OC(CC(OC(=O)CC(=O)O)CC(O)CC(O)C(C)C(O)/C=C/C=C/C1C)CC(O)C2O (stereo not drawn)
inactive: dose: 0.48 mg/kg/injection, schedule: Q01DX009 (ip), vehicle: saline 90 % of control | dose: 0.73 mg/kg/injection, schedule: Q01DX009 (ip), vehicle: saline 92 % of control | dose: 0.96 mg/kg/injection, schedule: Q04DX003 (ip), vehicle: saline 106 % of control | dose: 1.09 mg/kg/injection, schedule: Q01DX009 (ip), vehicle: saline 92 % of control | dose: 1.46 mg/kg/injection, schedule: Q04DX003 (ip), vehicle: saline 104 % of control | dose: 2.18 mg/kg/injection, schedule: Q04DX003 (ip), vehicle: saline 120 % of control | dose: 3.2 mg/kg/injection, schedule: Q04DX003 (ip), vehicle: saline 97 % of control | dose: 4.9 mg/kg/injection, schedule: Q04DX003 (ip), vehicle: saline 103 % of control and 86 % of control | dose: 7.3 mg/kg/injection, schedule: Q04DX003 (ip), vehicle: saline 92 % of control | dose: 23.0 micrograms/kg/injection, schedule: Q01DX001 (ip), vehicle: saline 98 % of control | dose: 23.0 micrograms/kg/injection, schedule: Q01DX009 (ip), vehicle: saline 100 % of control | dose: 23.0 micrograms/kg/injection, schedule: Q04DX003 (ip), vehicle: saline 105 % of control | dose: 47.0 micrograms/kg/injection, schedule: Q01DX001 (ip), vehicle: saline 104 % of control | dose: 47.0 micrograms/kg/injection, schedule: Q01DX009 (ip), vehicle: saline 108 % of control | dose: 47.0 micrograms/kg/injection, schedule: Q04DX003 (ip), vehicle: saline 106 % of control | dose: 95.0 micrograms/kg/injection, schedule: Q01DX001 (ip), vehicle: saline 97 % of control | dose: 95.0 micrograms/kg/injection, schedule: Q01DX009 (ip), vehicle: saline 94 % of control | dose: 95.0 micrograms/kg/injection, schedule: Q04DX003 (ip), vehicle: saline 101 % of control | dose: 141.0 micrograms/kg/injection, schedule: Q01DX009 (ip), vehicle: saline 106 % of control | dose: 141.0 micrograms/kg/injection, schedule: Q04DX003 (ip), vehicle: saline 97 % of control | dose: 215.0 micrograms/kg/injection, schedule: Q01DX009 (ip), vehicle: saline 105 % of control | dose: 215.0 micrograms/kg/injection, schedule: Q04DX003 (ip), vehicle: saline 100 % of control | dose: 322.0 micrograms/kg/injection, schedule: Q01DX009 (ip), vehicle: saline 103 % of control | dose: 322.0 micrograms/kg/injection, schedule: Q04DX003 (ip), vehicle: saline 103 % of control

C=CCCC1(CCC(C)C)C(=O)NC(=O)NC1=O
inactive: dose: 150.0 mg/kg/injection, schedule: Q01DX001 (ip), vehicle: saline 116 % of control

NC(=O)COc1ccc(Cl)c2ccccc12
inactive: [1] 96 % of control | [2] 86 % of control | [3] 102 % of control | [4] 99 % of control | [5] 86 % of control | [6] 99 % of control

O=C1c2ccccc2CC(Br)c2ccccc21 (stereo not drawn)
inactive: [1] 95 % of control | [3] 100 % of control | [5] 100 % of control

CC1C=NNC1=O (stereo not drawn)
inactive: [7] 124 % of control | dose: 100.0 mg/kg/injection, schedule: Q01DX009 (ip), vehicle: saline 115 % of control | dose: 100.0 mg/kg/injection, schedule: Q04DX003 (ip), vehicle: saline 104 % of control | dose: 200.0 mg/kg/injection, schedule: Q04DX003 (ip), vehicle: saline 112 % of control | dose: 300.0 mg/kg/injection, schedule: Q#B X027 (ip), vehicle: saline 89 % of control | dose: 400.0 mg/kg/injection, schedule: Q04DX003 (ip), vehicle: saline 109 % of control

NC(CCC(=O)NC(=O)OCc1ccccc1)C(=O)O (stereo not drawn)
inactive: [7] 102 % of control | [8] 100 % of control | [9] 97 % of control

CC(NC(=O)c1ccc2ccccc2n1)C(=O)O (stereo not drawn)
inactive: [10] 92 % of control | [11] 87 % of control | [12] 89 % of control

c1ccc(-c2nc(-c3nccc4ccccc34)oc2-c2ccccc2)cc1
inactive: [13] 97 % of control | [14] 88 % of control | [15] 93 % of control

O=C1C=CC(=O)N1c1ccc(Cl)cc1Br
inactive: dose: 5.0 mg/kg/injection, schedule: Q01DX009 (ip), vehicle: saline with Tween-80 91 % of control | dose: 10.0 mg/kg/injection, schedule: Q01DX009 (ip), vehicle: saline with Tween-80 91 % of control | dose: 20.0 mg/kg/injection, schedule: Q01DX009 (ip), vehicle: saline with Tween-80 91 % of control

CC(=O)Nc1ccc(S(=O)(=O)NC2(c3ccccc3)C(=O)N(C)C(=O)N(C)C2=O)cc1
inactive: [13] 91 % of control | [14] 94 % of control | [15] 103 % of control

c1cc2c(c(OCC3=NCCN3)c1)CCCC2
inactive: [16] 94 % of control

CNC(=S)N/N=C(\C=N\NC(=S)NC)c1ccc(-c2ccccc2)cc1
inactive: [2] 89 % of control | [4] 92 % of control | [6] 92 % of control

Cc1ccc(NC(=O)OCCSC(=O)COc2ccc(Cl)cc2Cl)cc1
inactive: [7] 93 % of control | [8] 98 % of control | [9] 104 % of control

CCC1(c2ccccc2)C(=O)NC(=O)N(CN2CCOCC2)C1=O (stereo not drawn)
inactive: dose: 50.0 mg/kg/injection, schedule: Q01DX009 (ip), vehicle: saline with Tween-80 114 % of control | [7] 93 % of control | [8] 97 % of control

C/C(=N\O)C(C)(C)O
inactive: [16] 101 % of control | dose: 200.0 mg/kg/injection, schedule: Q04DX002 (ip), vehicle: saline 108 % of control | dose: 400.0 mg/kg/injection, schedule: Q04DX002 (ip), vehicle: saline 105 % of control

CN(CCSSCCN(C)C(N)=S)C(N)=S
inactive: dose: 75.0 mg/kg/injection, schedule: Q04DX003 (ip), vehicle: saline 96 % of control | dose: 150.0 mg/kg/injection, schedule: Q04DX003 (ip), vehicle: saline 87 % of control | dose: 300.0 mg/kg/injection, schedule: Q04DX003 (ip), vehicle: saline 96 % of control

CC1=NN(c2ccccc2)C(=O)C1N=Nc1ccc(S(=O)(=O)Nc2ncccn2)cc1 (stereo not drawn)
inactive: [10] 100 % of control | [11] 94 % of control | [12] 89 % of control

C/C(=C\c1cc(-c2ccccc2)cc(=O)o1)c1ccccc1
inactive: [7] 89 % of control | dose: 100.0 mg/kg/injection, schedule: Q04DX003 (ip), vehicle: saline with Tween-80 104 % of control | [8] 97 % of control | dose: 200.0 mg/kg/injection, schedule: Q04DX003 (ip), vehicle: saline with Tween-80 95 % of control | [9] 89 % of control | dose: 400.0 mg/kg/injection, schedule: Q04DX003 (ip), vehicle: saline with Tween-80 103 % of control

COC(=O)c1cocc1C(=O)N1Cc2cc3ccccc3nc2C1
inactive: [1] 103 % of control | [3] 95 % of control | [5] 94 % of control
